From PMC10726475, “Atypical N-Alkyl to N-Noralkoxy Switch in a Dual cSRC/BCR-ABL1 Kinase Inhibitor Improves Drug Efflux and hERG Affinity” (ACS Medicinal Chemistry Letters, 2023)

Biological target: CYP2D6 (Homo sapiens, UniProt P10635)
Test: in vitro
Conditions: both, microsomes, CYP2D6 Inhibition percentage(%) at Top conc.

Sequence of CYP2D6 (P10635 whole entry): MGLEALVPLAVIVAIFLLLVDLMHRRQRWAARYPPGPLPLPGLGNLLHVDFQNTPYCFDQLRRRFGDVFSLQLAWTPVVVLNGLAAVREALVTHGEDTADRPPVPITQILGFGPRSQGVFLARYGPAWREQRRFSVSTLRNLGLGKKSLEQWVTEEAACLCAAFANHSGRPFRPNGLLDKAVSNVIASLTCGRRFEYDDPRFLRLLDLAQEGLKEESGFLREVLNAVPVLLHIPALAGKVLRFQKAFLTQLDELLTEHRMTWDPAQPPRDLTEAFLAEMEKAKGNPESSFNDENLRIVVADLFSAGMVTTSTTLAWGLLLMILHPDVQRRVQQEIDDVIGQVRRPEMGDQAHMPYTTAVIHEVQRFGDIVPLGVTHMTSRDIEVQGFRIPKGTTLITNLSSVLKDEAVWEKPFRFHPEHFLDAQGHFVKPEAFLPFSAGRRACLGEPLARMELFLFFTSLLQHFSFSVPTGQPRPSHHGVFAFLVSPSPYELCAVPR

Fc1ccc([C@@H]2CCNC[C@H]2COc2ccc3c(c2)OCO3)cc1 [Paroxetine]
inhibition at 20 min: 91.7%
